Experimental findings from patent publication US9328138B2 (priority 2011, dated 2016) are described below.

In test [1] the target is T1, HCV genotype 1b (BK) NS3 modified enzyme with a R155K mutation (Hepatitis C virus genotype 1b, UniProt P26663, R1181K).
T1 construct: HCV genotype 1b (BK) NS3 modified enzyme
Nature of the test: HCV NS3 protease time-resolved fluorescence (TRF) assay, genotype 1b R155K. The test is classed as biochemical. The conditions noted are these: Ki 1b R155K, genotype 1b (BK) NS3 R155K; single value. On the procedure: (§1) The HCV NS3 protease inhibitory activity of the present compounds may be tested using assays known in the art. One such assay is HCV NS3 protease time-resolved fluorescence (TRF) assay as described below and in International Patent Application Publication No. WO2006/102087. Other examples of such assays are described in e.g., International Patent Application Publication No. WO2005/046712. The assay is performed in a final volume of 100 μl in assay buffer containing 50 mM HEPES, pH 7.5, 150 mM NaCl, 15% glycerol, 0.15% Triton X-100, 10 mM DTT, and 0.1% PEG 8000. NS3 protease is pre-incubated with various concentrations of inhibitors in DMSO for 30 minutes. The reaction is initiated by adding the TRF peptide substrate (final concentration 100 nM). NS3 mediated hydrolysis of the substrate is quenched after 1 hour at room temperature with 100 μl of 500 mM MES, pH 5.5. Product fluorescence is detected using either a VICTOR V2 or FUSION fluorophotometer (Perkin Elmer Life and Analytical Sciences) with excitation at 340 nm and emission at 615 nm with a 400 μs delay. Testing concentrations of different enzyme forms are selected to result in a signal to background ratio (S/B) of 10-30. IC50 values are derived using a standard four-parameter fit to the data. K; values are derived from IC50 values using the following formula, IC50=Ki(1+[S]/Km), Eqn (1), where [S] is the concentration of substrate peptide in the reaction and KM is the Michaelis constant. See Gallinari et al., 1999, Biochem. 38:5620-32; Gallinari et al., 1998, J. Virol. 72:6758-69; Taliani et al., 1996, Anal. Biochem. 240:60-67.
(§2) The HCV NS3 protease inhibitory activity was measured using the protease time-resolved fluorescence (TRF) assay as described below and in International Patent Application Publication No. WO 2006/102087. The assay was performed with HCV genotype 1b (BK) NS3 modified enzyme with a R155K mutation and genotype 3a (3A-1).
(§3) The assay was performed in a final volume of 50 μl in assay buffer containing 50 mM HEPES, pH 7.5, 150 mM NaCl, 15% glycerol, 0.15% TRITON X-100, 10 mM DTT, and 0.1% PEG 8000. NS3 and NS4A protease is pre-incubated with various concentrations of inhibitors in DMSO for 10 minutes. The reaction was initiated by adding the TRF peptide substrate (final concentration 25 nM) and NS3 mediated hydrolysis of the substrate proceeds for 6 hours at room temperature. Product fluorescence is detected using an Envision plate reader (Perkin Elmer) with excitation at 340 nm and emission at 615 nm with a 400 μs delay. Testing concentrations of the enzymes were selected to result in a signal to background ratio (S/B) of 5-20. IC50 values are derived using a standard four-parameter fit to the data.
(§4) NS3 and NS4A protease is pre-incubated with various concentrations of inhibitors in DMSO for 30 minutes. The reaction is initiated by adding the TRF peptide substrate (final concentration 100 nM). NS3 mediated hydrolysis of the substrate is quenched after 1 hour at room temperature with 100 μl of 500 mM MES, pH 5.5. Product fluorescence is detected using either a VICTOR V2 or FUSION fluorophotometer (Perkin Elmer Life and Analytical Sciences) with excitation at 340 nm and emission at 615 nm with a 400 μs delay. Testing concentrations of the enzymes are selected to result in a signal to background ratio (S/B) of 8-30. IC50 values are derived using a standard four-parameter fit to the data. Ki values are derived from IC50 values using the following formula, IC50=Ki(1+[S][…]), Eqn (1), where [S] is the concentration of substrate peptide in the reaction and KM is the Michaelis constant. See Gallinari et al., 1999, Biochem. 38:5620-32; Gallinari et al., 1998, J. Virol. 72:6758-69; and Taliani et al., 1996, Anal. Biochem. 240:60-67. ND means not determined.

The target of test [2] is HCV NS3 protease genotype 3a (3A-1) (Hepatitis C virus genotype 3a, UniProt Q81258). Nature of the test: HCV NS3 protease time-resolved fluorescence (TRF) assay, genotype 3a. Conditions: Ki 3a. Format: biochemical. On the procedure:
as §1, §2, §3, §4

Regarding `C=C[C@@H]1C[C@]1(NC(=O)[C@@H]1C[C@@H]2CN1C(=O)[C@H](C(C)(C)C)NC(=O)O[C@@H]1C[C@H]1CCCCCc1c(nc3ccccc3c1OCCCN(CC)CCc1nc3ccccc3[nH]1)O2)C(=O)NS(=O)(=O)C1(C)CC1` [Example 192, (1aR,5S,8S,10R,22aR)-17-(3-{[2-(1H-benzimidazol-2-yl)ethyl](ethyl)amino}propoxy)-5-tert-butyl-N-[(1R,2S)-2-ethenyl-1-{[(1-methylcyclopropyl)sulfonyl]carbamoyl}cyclopropyl]-3,6-dioxo-1,1a,3,4,5,6,9,10,18,19,20,21, 22,22a-tetradecahydro-8H-7,10-methanocyclopropa[18,19][1,10,3,6] dioxadiazacyclononadecino[11,12-b] quinoline-8-carboxamide], the Ki (commonly a dissociation constant, usually derived from enzyme kinetics or from competition with a known ligand) turned out to be 0.1 nM in test [1] and 0.71 nM in test [2].
The like results for `C=C[C@@H]1C[C@]1(NC(=O)[C@@H]1C[C@@H]2CN1C(=O)[C@H](C(C)(C)C)NC(=O)O[C@@H]1CCC[C@H]1CCCCCc1c(nc3ccccc3c1OCCN1CCOCC1)O2)C(=O)NS(=O)(=O)N1CCCCC1` [Example 110, (3aR,7S,10S,12R,24aR)-7-tert-butyl-N-{(1R,2S)-2-ethenyl-1-[(piperidin-1-ylsulfonyl)carbamoyl]cyclopropyl}-19-[2-(morpholin-4-yl)ethoxy]-5,8-dioxo-1,2,3,3a,5,6,7,8, 11,12,20,21,22,23,24,24a-hexadecahydro-10H-9,12-methanocyclopenta[18,19] [1,10,3,6]dioxadiaza-cyclononadecino[11,12-b] quinoline-10-carboxamide] were, in that order, 14 nM and 488 nM.
Take `C=C[C@@H]1C[C@]1(NC(=O)[C@@H]1C[C@@H]2CN1C(=O)[C@H](C(C)(C)C)NC(=O)O[C@@H]1C[C@H]1CCCCCc1c(nc3ccccc3c1OCCCNC(C)C)O2)C(=O)NS(=O)(=O)C1(C)CC1` [Example 185, (1aR,5S,8S,10R,22aR)-5-tert-butyl-N-[(1R,2S)-2-ethenyl-1-{[(1-methylcyclopropyl)sulfonyl]carbamoyl}cyclopropyl]-3,6-dioxo-17-[3-(propan-2-ylamino)propoxy]-1,1a,3,4,5,6,9,10,18,19,20,21,22,22a-tetradecahydro-8H-7,10-methanocyclopropa[18,19][1,10,3,6] dioxadiazacyclononadecino[11,12-b] quinoline-8-carboxamide]: the Ki in test [1] is 0.032 nM; in test [2] it was 0.36 nM.
The like results for `C=C[C@@H]1C[C@]1(NC(=O)[C@@H]1C[C@@H]2CN1C(=O)[C@H](C(C)(C)C)NC(=O)O[C@@H]1C[C@H]1CCCCCc1c(nc3cc(C(C)C)ccc3c1OCCCN1C[C@@H]3C[C@H]1CO3)O2)C(=O)NS(=O)(=O)C1(C)CC1` [Example 164, (1aR,5S,8S,10R,22aR)-5-tert-butyl-N-[(1R,2S)-2-ethenyl-1-{[(1-methylcyclopropyl)sulfonyl]carbamoyl}cyclopropyl]-17-{3-[(1S,4S)-2-oxa-5-azabicyclo[2.2.1]hept-5-yl]propoxy}-3,6-dioxo-14-(propan-2-yl)-1,1a,3,4,5,6,9,10,18,19,20, 21,22,22a-tetradecahydro-8H-7,10-methanocyclopropa[18,19][1,10,3,6] dioxadiazacyclononadecino [11,12-b]quinoline-8-carboxamide] were, in that order, 0.096 nM and 1.2 nM.
On to `C=C[C@@H]1C[C@]1(NC(=O)[C@@H]1C[C@@H]2CN1C(=O)[C@H](C(C)(C)C)NC(=O)O[C@@H]1CCC[C@H]1CCCCCc1c(nc3ccccc3c1OCCN(C)C)O2)C(=O)NS(=O)(=O)C1(COC)CC1` [Example 63, (3aR,7S,10S,12R, 24aR)-7-tert-butyl-19-[2-(dimethylamino)ethoxy]-N-[(1R,2S)-2-ethenyl-1-({[1-(methoxymethyl)cyclopropyl]sulfonyl}carbamoyl)cyclopropyl]-5,8-dioxo-1,2,3,3a, 5,6,7,8,11,12,20, 21,22,23,24,24a-hexadecahydro-10H-9,12-methanocyclopenta [18,19][1,10,3,6]dioxa-diazacyclononadecino [11,12-b]quinoline-10-carboxamide], for which the Ki in test [1] stood at 0.35 nM; in test [2], 7.2 nM.
With `C=C[C@@H]1C[C@]1(NC(=O)[C@@H]1C[C@@H]2CN1C(=O)[C@H](C(C)(C)C)NC(=O)O[C@@H]1C[C@H]1CCCCCc1c(nc3cc(C)ccc3c1OCCCN1CC[C@H](N(C)C)C1)O2)C(=O)NS(=O)(=O)C1(C)CC1` [Example 148, (1aR,5S,8S,10R,22aR)-5-tert-butyl-17-{3-[(3S)-3-(dimethylamino)pyrrolidin-1-yl]propoxy}-N-[(1R,2S)-2-ethenyl-1-{[(1-methylcyclopropyl)ulfonyl]carbamoyl}cyclopropyl]-14-methyl-3,6-dioxo-1,1a,3,4,5,6,9,10,18,19,20,21,22,22a-tetradecahydro-8H-7,10-methanocyclopropa[18,19] [1,10,3,6]dioxadiazacyclononadecino [11,12-b]quinoline-8-carboxamide], the inhibition constant (Ki) amounted to 0.065 nM in test [1] and 0.74 nM in test [2].
The like results for `C=C[C@@H]1C[C@]1(NC(=O)[C@@H]1C[C@@H]2CN1C(=O)[C@H](C1CCCC1)NC(=O)O[C@@]1(C)CCC[C@@H]1CCCCCc1c(nc3ccccc3c1O)O2)C(=O)NS(=O)(=O)C1CC1` [Example 30, (3aS,7S,10S,12R,24aS)-7-cyclopentyl-N-{(1R,2S)-1-[(cyclopropylsulfonyl)carbamoyl]-2-ethenylcyclopropyl}-19-hydroxy-3a-methyl-5,8-dioxo-1,2,3,3a,5,6,7,8,11,12,20,21,22,23,24,24a-hexa-decahydro-10H-9,12-methanocyclopenta[18,19] [1,10,3,6]dioxadiazacyclononadecino[11,12-b] quinoline-10-carboxamide] were, in that order, 1.3 nM and 4.9 nM.
`CC[C@@H]1C[C@]1(NC(=O)[C@@H]1C[C@@H]2CN1C(=O)[C@H](C1CCCC1)NC(=O)OC1(C)CCCC1CCCCCc1c(nc3ccccc3c1O)O2)C(=O)NS(=O)(=O)C1CC1` (single isomer, unassigned) [Example 32]: the Ki worked out at 0.54 nM in test [1] and 9.2 nM in test [2].
As for `C=C[C@@H]1C[C@]1(NC(=O)[C@@H]1C[C@@H]2CN1C(=O)[C@H](C1CCCC1)NC(=O)O[C@]1(C)CCC[C@H]1CCCCCc1c(nc3ccccc3c1O)O2)C(=O)NS(=O)(=O)C1CC1` (single isomer, unassigned) [Example 29], the inhibition constant Ki in test [1] amounted to 0.12 nM.
Still for that read-out and setting: in the case of `C=C[C@@H]1C[C@]1(NC(=O)[C@@H]1C[C@@H]2CN1C(=O)[C@H](C1CCCC1)NC(=O)O[C@]1(C)C[C@H]1CC/C=C/Cc1c(nc3ccccc3c1O)O2)C(=O)NS(=O)(=O)C1CC1` [Example 19, (1aR,5S,8S,10R,19E,22aR)-5-cyclopentyl-N-{(1R,2S)-1-[(cyclopropylsulfonyl)carbamoyl]-2-ethenylcyclopronyl}-17-hydroxy-1a-methyl-3,6-dioxo-1,1a,3,4,5,6,9,10,18,21,22,22a-dodecahydro-8H-7,10-methanocyclopropa[18,19][1,10,3,6]dioxadiazacyclononadecino[11,12-b]quinoline-8-carboxamide] it was 0.091 nM.
